Source: patent publication US20170258747A1, “GLUTAMINE ENRICHED NUTRITIONAL COMPOSITION FOR PRETERM INFANTS” (N.V. Nutricia, priority 2012, published 2017)

Key:
VLBW infants [1] = conditions: in the first year of life and at the age of 6; cited from earlier work
VLBL infants = conditions: supplementation with glutamine in VLBL infants; cited from earlier work
[2] = system: very preterm and/or VLBW children; experiment: Brain cortical volumes by MRI at school age after enteral glutamine supplementation, days 3-30 of life; format: in vivo, human
Description: (§1) A randomized, placebo controlled clinical trial was performed. For a detailed protocol of the study, see van den Berg et al, 2004, Glutamine-enriched enteral nutrition in very low birth weight infants. Design of a double-blind randomised controlled trial [ISRCTN73254583], BMC Pediatrics 4:17.
(§2) In short: Infants with a gestational age <32 weeks and/or birth weight <1500 g were enrolled. In total 52 very preterm and/or VLBW children, which had taken part in a randomized controlled trial on enteral glutamine supplementation between day 3 and 30 of life, participated in this follow up study at the mean age of 8.6 years (SD=0.3 years). 30 infants were in the control group and 22 in the glutamine supplementation group. Also comparisons were made with a control group (n=52) of term born infants.
(§3) The glutamine nutritional supplement was in powder form and contained 82 wt. % L-glutamine in total and 18 wt. % glucose (nitrogen 15.5 wt/wt %; 371 kcal/100 g), whereas the isonitrogenous control powder contained 100 wt. % L-alanine (nitrogen 15.7 wt/wt %, 435 kcal/100 g). The two powders were indistinguishable by appearance, colour and smell. Between days 3 and 30 of life, supplementation was administered in increasing doses to a maximum of 0.3 g/kg glutamine per day in the glutamine group. Initially, the supplementation dose was based on birth weight. After 2 weeks the dose was adjusted to actual body weight. Two members of the nursing staff daily added supplementation to breast milk or to preterm formula (Nenatal®, Nutricia Nederland B.V., Zoetermeer, The Netherlands), according to the parents' choice. Per 100 ml, Nenatal® provides 78 kcal, 2.1 g protein (casein-whey protein weight ratio 40:60), 4.4 g fat and 7.5 g carbohydrate. […] Protocol guidelines for the introduction of parenteral and enteral nutrition are disclosed in van den Berg et al., 2004.
(§4) All statistical analyses are performed on an intention to treat basis. In addition, alternative per protocol analyses are performed, excluding all patients who are not treated according to protocol, defined as more than 3 consecutive days or more than a total of 5 days on minimal enteral feeding or without supplementation. A p value<0.05 is considered significant (two-tailed). SPSS 9.0 (SPSS Inc., Chicago, Ill., USA) and STAT 7.0 (Stat-Corp LP, College Station, Tex., USA) are used for data analysis. A p value of 0.1 or below is considered to represent a realistic effect, a trend. Due to the small size of the groups also the effect size is taken into account. An effect size above 0.4 is considered to represent a trend.
Brain cortical volumes were determined by MRI and calculated using FSL software “FAST” and corrected for age at MM scan, gender and body weight for gestational age. […] This was the case for intracranial volume, grey matter, white matter and cerebellum volume.

[3] = system: glutamine fed preterm group; experiment: fMRI neuronal activation later in life; format: in vivo, human
Source text: The improved brain development established at school age is indicative for improvement in neurocognitive functioning, behavioral and/or motional development, improving neuronal activation during interference task or during visuo-spatial working memory task, improvement of visuomotor skills (caterpillar-task).

[4] = system: very preterm and/or VLBW children; experiment: Brain subcortical volumes by MRI at school age after enteral glutamine supplementation, days 3-30 of life; format: in vivo, human
Description: as §1, §2, §3, §4
Brain subcortical volumes were determined by Mill and calculated using FSL software “FAST” and corrected for age at Mill scan, gender and body weight for gestational age. […] This was the case for the brain stem, thalamus, putamen, caudate nucleus, hippocampus, globus pallidum, amygdale, nucleus accumbens and the corpus callosum volume.

VLBW infants [5] = conditions: at age of 2 years; cited from earlier work
[6] = system: very preterm and/or VLBW children; experiment: Intellectual development, short form of WISC-III; format: in vivo, human; conditions: mean, sd 17.7, n=30; scores normalised with a mean of 100 (SD 15); p=0.12 versus control
Description: Intellectual development was measured in the same group of infants as example 1 by a short form of the Wechsler Intelligence Scale for Children-III (WISC-III), including the subtests Vocabulary and Block Design. […]. Both subtests correlate strongly (r 0.90) with full-scale intelligence quotient (FSIQ). Scores on this test were normalised with a mean of 100 (SD 15). There was a trend (p=0.12 when adjusted for gestational age and socioeconomic status) in improved IQ (WISC-III FSIQ being 102, sd 17.7, n=30) in the glutamine group compared to the control group (WISC-III FSIQ 93.6 sd 17.2 n=34).

[7] = glutamine supplemented versus control preterm group
[8] = mean, MRI at mean age 8.6 years, max 0.3 g/kg glutamine per day, days 3-30 of life
[9] = mean, MRI at mean age 8.6 years

In the case of NC(=O)CC[C@H](N)C(=O)O [Glutamine, L-glutamine], the “Risk for atopic dermatitis” value (VLBW infants [1]) is given as “decreases”, the Infectious morbidity (VLBL infants) is given as “lowers” and the “Effect size, cerebellum” value ([2]; control versus glutamine group) is given as 0.41. For the same compound, the “Effect size, grey matter” value ([2]; control versus glutamine group) was 0.29, the “Effect size, intracranial volume” value ([2]; control versus glutamine group) was 0.48 and the “Effect size, white matter” value ([2]; control versus glutamine group) was 0.54. For the same compound, the “Cerebellum volume compared with preterm control group” value [2, 7] was “tendency for an increase”, the “Cortical brain volumes compared with preterm control group” value [2, 7] was “higher than in the control group” and the “Intracranial volume compared with preterm control group” value [2, 7] was “tendency for an increase”. The “White matter volume compared with preterm control group” value [2, 7] was “significantly higher”, the Cerebellum volume [2, 8] was 110.89 cm^3 and the Grey matter volume [2, 8] was 727.4 cm^3. For the same compound, the Intracranial volume [2, 8] was 1649.8 cm^3, the White matter volume [2, 8] was 496.5 cm^3 and the “Neuronal activation (fMRI)” value [3] was “more similar to term infants”. The “Effect size, amygdala” value ([4]; control versus glutamine group) was 0.46, the “Effect size, brain stem” value ([4]; control versus glutamine group) was 0.54 and the “Effect size, caudate nucleus” value ([4]; control versus glutamine group) was 0.10. The “Effect size, corpus callosum” value ([4]; control versus glutamine group) was 0.18, the “Effect size, globus pallidum” value ([4]; control versus glutamine group) was 0.48 and the “Effect size, hippocampus” value ([4]; control versus glutamine group) was 0.47. For the same compound, the “Effect size, nucleus accumbens” value ([4]; control versus glutamine group) was 0.04, the “Effect size, putamen” value ([4]; control versus glutamine group) was 0.55 and the “Effect size, subcortical structures” value ([4]; control versus glutamine group) was 0.50. For the same compound, the “Effect size, thalamus” value ([4]; control versus glutamine group) was 0.39, the “Brain stem volume compared with preterm control group” value [4, 7] was “significantly higher” and the “Hippocampus volume compared with preterm control group” value [4, 7] was “significantly higher”. For the same compound, the “Subcortical volume compared with preterm control group” value [4, 7] was “higher”, the Amygdala volume [4, 9] was 2.3 cm^3 and the Brain stem volume [4, 9] was 18.9 cm^3. For the same compound, the “Caudate Nucleus volume” value [4, 9] was 7.4 cm^3, the Corpus callosum [4, 9] was 535.7 mm^2 and the “Globus Pallidum volume” value [4, 9] was 3.5 cm^3. It also gave a Hippocampus volume [4, 9] of 7.2 cm^3, a Nucleus accumbens volume [4, 9] of 1.0 cm^3 and a Putamen volume [4, 9] of 10.9 cm^3. For the same compound, the Subcortical structures volume [4, 9] was 66.5 cm^3, the Thalamus volume [4, 9] was 15.3 cm^3 and the Neurodevelopment outcome (VLBW infants [5]) was “no effect”. For the same compound, the “WISC-III FSIQ” value [6] was 102.
